Experimental data published in paper PMC5175284, “Mechanistic Study of Tetrahydrofuran- acetogenins In Triggering Endoplasmic Reticulum Stress Response-apotoposis in Human Nasopharyngeal Carcinoma” (Scientific Reports, 2016).
Like-named read-outs stand apart in the source and are kept apart here. * marks the point of attachment. Cbz = O=C(OCc1ccccc1)*; CH2F = FC*

What was measured:
NPC-TW01 cells [1] = assay: Caspase inhibition assay (MTT cell survival); assay type: cell-based, human; conditions: pretreated 1 hour, squamostatin A for 72 hours
Description: For caspase inhibition experiments, cell-permeable and irreversible inhibitors of caspase-12 were added to the medium one hour before the administration of squamostatin A. Cell survival was determined using the MTT assay to evaluate the effects of the test compound on cell growth, as described previously.

NPC-TW01 cells [2] = assay: Mitochondrial Ca2+ concentration (Rhod-2, flow cytometry); assay type: cell-based, human; conditions: 24 hours
Description: (§1) The cytosolic and mitochondrial Ca^2+ concentrations were measured using fluo-3 and Rhod-2, respectively. The intensity of de-esterification of intracellular AM esters in the THF-ACGs treated or control tumor cells were measured after 30 mins of incubation. For each analysis, 10,000 events were recorded and results were analyzed using De Novo software.

NPC-TW01 xenograft = assay: NPC-TW01 s.c. xenograft antitumor experiment; assay type: in vivo, BALB/c nude mice; conditions: squamostatin A 0.5 mg/kg i.p. every three days; paclitaxel 10 mg/kg weekly
Description: For the antitumor xenograft experiments, specific pathogen–free male athymic BALB/c nude mice, 6 to 8 weeks of age, were inoculated with 1 × 10^6 of exponential growth viable NPC-TW01 cells at the right flank of mice and mice were randomly divided into three groups (8 in each group). Tumor-implanted mice were treated i.p. with vehicle (5% DMSO/10% cremophor/85% saline) or 0.5 mg/kg squamostatin A every three days. Paclitaxel (10 mg/kg, once a week) was used as a positive control. Tumor size was measured every three days with a caliper, and tumor volume was calculated by the following formula: V = (1/2) × […]. At the end of the experiments, the animals were euthanized by carbon dioxide inhalation, followed by cervical dislocation. The animal experiments were supervised and approved by the Institutional Animal Care and Use Committee (IACUC) of China Medical University (Taichung, Taiwan). All animal studies were performed in accordance with the Animal Protection Act of Taiwan.

FaDu cells = assay: Growth inhibition assay (MTT), FaDu; assay type: cell-based; conditions: Homo sapiens, treated for three generations, read-out: Growth inhibitory activity IC50, FaDu
Description: (§2) The colorimetric assay for cellular growth and survival was performed as described by Hansen et al., with slight modifications. Pre-determinate numbers of cells were seeded in a 96-well microplate and designated compounds at various concentrations were added for the indicated time period. MTT containing solution was added after compound treatment and conversion of MTT to formazan by metabolically viable cells was measured by absorbance at 490 nm in a 96-well microtiter plate reader. The percentage of conversion by mock-treated control cells was used to evaluate the effect of the chemicals on cell growth and to determine the IC50 concentration.

TW01-R-MTX cells = assay: Growth inhibition assay (MTT), methotrexate-resistant NPC-TW01; assay type: cell-based; conditions: Homo sapiens, drug-resistant cell line, three generations, read-out: Growth inhibitory activity IC50, TW01-R-MTX
Description: as §2

HONE-1 cells = assay: Growth inhibition assay (MTT), HONE-1; assay type: cell-based; conditions: Homo sapiens, HONE1, treated for three generations, read-out: Growth inhibitory activity IC50, HONE-1
Description: as §2

NPC-TW01 cells [3] = assay: Growth inhibition assay (MTT), NPC-TW01; assay type: cell-based; conditions: Homo sapiens
Description: as §2

Jurkat cells = assay: Growth inhibition assay (MTT), Jurkat; assay type: cell-based; conditions: Homo sapiens, treated for three generations, read-out: Growth inhibitory activity IC50, Jurkat
Description: as §2

HT-1080 cells = assay: Growth inhibition assay (MTT), HT-1080; assay type: cell-based; conditions: Homo sapiens, treated for three generations, read-out: Growth inhibitory activity IC50, HT-1080
Description: as §2

H226 cells = assay: Growth inhibition assay (MTT), H226; assay type: cell-based; conditions: Homo sapiens, NCI-H226, treated for three generations, read-out: Growth inhibitory activity IC50, H226
Description: as §2

HONE R-MTX cells = assay: Growth inhibition assay (MTT), methotrexate-resistant HONE-1; assay type: cell-based; conditions: Homo sapiens, HONE1, drug-resistant cell line, three generations, read-out: Growth inhibitory activity IC50, HONE R-MTX
Description: as §2

Hep 3B cells = assay: Growth inhibition assay (MTT), Hep 3B; assay type: cell-based; conditions: Homo sapiens, Hep3B, treated for three generations, footnote a, read-out: Growth inhibitory activity IC50, Hep 3B
Description: as §2

Detroit 551 cells = assay: Growth inhibition assay (MTT), Detroit 551 normal fibroblasts; assay type: cell-based; conditions: Homo sapiens, treated for three generations, read-out: Growth inhibitory activity IC50, Detroit 551
Description: as §2

NPC-TW01 cells [4] = assay: Annexin-V/PI apoptosis assay by flow cytometry; assay type: cell-based, human; conditions: IC50 concentration, 36 hours
Description: THF-ACGs induced apoptotic phenomena were monitored by The Annexin V-FITC Apoptosis Detection Kit II (BD Biosciences Pharmingen) according to the manufacturer’s instructions. Briefly, THF-ACGs-treated or control cells were collected and resuspended in 400 μL 1 × binding buffer at a concentration of ~1 × 10^6 cells/ml, and 5 μL of purified recombinant Annexin V and PI reagent were added. After incubation at room temperature for 15 min in the dark, the intensity of Annexin V and PI was measured by flow cytometer immediately and results were analyzed using De Novo software (MultiCycle AV Plug-in for FCS Express).

SCC-25 cells = assay: Growth inhibition assay (MTT), SCC-25; assay type: cell-based; conditions: Homo sapiens, Supplemental Table 1, read-out: Growth inhibitory activity IC50, SCC-25
Description: as §2

NPC-TW01 cells [5] = assay: Cytosolic Ca2+ concentration (Fluo-3, flow cytometry); assay type: cell-based, human; conditions: IC50 concentration, 24 hours
Description: as §1

SCC-15 cells = assay: Growth inhibition assay (MTT), SCC-15; assay type: cell-based; conditions: Homo sapiens, Supplemental Table 1, read-out: Growth inhibitory activity IC50, SCC-15
Description: as §2

OECM-1 cells = assay: Growth inhibition assay (MTT), OECM-1; assay type: cell-based; conditions: Homo sapiens, OECM1, Supplemental Table 1, read-out: Growth inhibitory activity IC50, OECM-1
Description: as §2

NPC-TW01 cells [6] = assay: Cell cycle distribution by PI staining and flow cytometry; assay type: cell-based, human; conditions: IC50 concentration, 24 hours
Description: To measure the THF-ACGs effect on the cell cycle distribution, the THF-ACGs-treated cells were collected, fixed with ice-cold alcohol, treated with RNase and stained with propidium iodide. The DNA content of each sample was evaluated by FACScan flow cytometer and ratio of cell cycle phases were determined by ModFit software (Verity Software House Inc., Topsham, ME).

NPC-TW01 cells [7] = assay: Mitochondrial membrane potential (DiOC6 staining, flow cytometry); assay type: cell-based, human; conditions: IC50 concentration, 24 hours
Description: To measure the change of mitochondrial potential transition (MPT), THF-ACGs treated cells were labeled with 100 nM DiOC6, harvested and suspended in PBS. The intensity of DiOC6 in cells was measured using FACScan flow cytometer.

[8] = treated for three generations, read-out: Growth inhibitory activity IC50, NPC-TW01

Cbz-ATAD-CH2F was tested, and the “Effect of caspase-12 inhibitor pretreatment on squamostatin A toxicity against NPC-TW01 cell growth” value (NPC-TW01 cells [1]) was “significantly block the toxicity of squamostatin A”.

With `NCCOB(c1ccccc1)c1ccccc1` [2-APB, 2-Aminoethoxydiphenyl borate, reference compound] the “Content of mitochondrial calcium on squamostatin A treatment in the presence of 2-APB” value (NPC-TW01 cells [2]; 2-APB 10 μM, squamostatin A IC50 concentration) was “diminish the content of mitochondrial calcium”.

In the case of `CC(=O)O[C@H]1C(=O)[C@@]2(C)[C@H]([C@H](OC(=O)c3ccccc3)[C@]3(O)C[C@H](OC(=O)[C@H](O)[C@@H](NC(=O)c4ccccc4)c4ccccc4)C(C)=C1C3(C)C)[C@]1(OC(C)=O)CO[C@@H]1C[C@@H]2O` [paclitaxel, Paclitaxel], the “Overall tumor volume between weeks 6 and 13” value (NPC-TW01 xenograft) is reported as “tumor continued growth slowly”.

Work on `CN(Cc1cnc2nc(N)nc(N)c2n1)c1ccc(C(=O)N[C@@H](CCC(=O)O)C(=O)O)cc1` [methotrexate, reference compound] yielded an IC50 (FaDu cells) of 0.0921 µM, an IC50 (TW01-R-MTX cells; footnote b) of 1900 µM and an IC50 (HONE-1 cells) of 0.0657 µM. For the same compound, the IC50 (NPC-TW01 cells [3]; [8]) was 0.043 µM, the IC50 (Jurkat cells) was 0.0183 µM and the IC50 (HT-1080 cells) was 0.0141 µM. For the same compound, the IC50 (H226 cells) was 0.0398 µM, the IC50 (HONE R-MTX cells; footnote a) was 39.6 µM and the IC50 (Hep 3B cells) was over 2 µM. For the same compound, the IC50 (Detroit 551 cells; footnote a) was 2 µM.

`CCCCCCCCCCCC[C@@H](O)[C@H]1CC[C@@H]([C@@H](O)CCCCC(=O)CCCCCCCC2=C[C@H](C)OC2=O)O1` [corossolone] was tested, and the IC50 (FaDu cells; footnote a) was over 2 µM, the IC50 (TW01-R-MTX cells) was 0.0288 µM and the IC50 (HONE-1 cells) was 0.132 µM. For the same compound, the IC50 (NPC-TW01 cells [3]; Supplemental Table 1, read-out: Growth inhibitory activity IC50, NPC-TW01 (Supplemental Table 1)) was 0.0313 µM, the IC50 (NPC-TW01 cells [3]; [8]) was 0.121 µM and the “Ca2+ Mitochondria (Rho-2) GEO mean value, Treated” value (NPC-TW01 cells [2]; IC50 concentration) was 149.2. The “Increase of mitochondrial Ca2+ (Rho-2) vs Ctrl” value (NPC-TW01 cells [2]; IC50 concentration) was 29%, the IC50 (Jurkat cells) was 0.0003 µM and the “Annexin-V positive, E (early phase apoptosis)” value (NPC-TW01 cells [4]) was 4.9%. For the same compound, the “Annexin-V positive, L (late phase apoptosis)” value (NPC-TW01 cells [4]) was 7.4%, the IC50 (HT-1080 cells) was 0.705 µM and the IC50 (H226 cells; footnote a) was over 2 µM. It also gave an IC50 (HONE R-MTX cells) of 0.147 µM, an IC50 (Hep 3B cells) of over 2 µM and an IC50 (SCC-25 cells) of over 2 µM. The “Ca2+ Cytosol (Fluo-3) GEO mean value, Treated” value (NPC-TW01 cells [5]) was 149.2, the IC50 (Detroit 551 cells) was 0.354 µM and the IC50 (SCC-15 cells) was over 2 µM. For the same compound, the IC50 (OECM-1 cells) was over 2 µM, the “Cell cycle distribution, G0/G1” value (NPC-TW01 cells [6]) was 40.9% and the “Cell cycle distribution, G2/M” value (NPC-TW01 cells [6]) was 30.5%. The “Cell cycle distribution, S” value (NPC-TW01 cells [6]) was 28.6%, the “Decrease of mitochondrial membrane potential vs Ctrl” value (NPC-TW01 cells [7]) was 27% and the “Mitochondrial membrane potential GEO mean value, Treated” value (NPC-TW01 cells [7]) was 777.
